≈ marks a conversion by molar mass, not a printed value.
Tests used:
[1] = system: Serratia marcescens IID 618; test: In vitro antibacterial activity, MIC (standard strain); type: cell-based; conditions: Serratia marcescens, IID618, Serratia marcescens IID 618; 10^6 cells/ml; standard strain; read-out: MIC
[2] = system: S. agalactiae 4049; test: In vitro antibacterial activity, MIC (clinical isolates); type: cell-based; conditions: Streptococcus agalactiae; S. agalactiae 4049; 10^6 cells/ml; clinical isolate; read-out: MIC
[3] = system: S. aureus IID 670 (Terajima); test: In vitro antibacterial activity, MIC (standard strain); type: cell-based, Staphylococcus aureus; conditions: Staphylococcus aureus, IID670, S. aureus IID 670 (Terajima); 10^6 cells/ml; standard strain; read-out: MIC
[4] = system: Morganella morganii IID 602; test: as above; type: cell-based; conditions: IID602; Morganella morganii IID 602; 10^6 cells/ml; standard strain; read-out: MIC
[5] = system: B. fragilis 0558; test: as above; type: cell-based, Bacteroides fragilis; conditions: Bacteroides fragilis, 0558, B. fragilis 0558; 10^6 cells/ml; standard strain; read-out: MIC
[6] = system: Shigella sonnei IID 969; test: as above; type: cell-based; conditions: IID969, 10^6 cells/ml
Procedure: Experiment-1 In vitro antibacterial activity
The in vitro antibacterial activity against gram-positive and gram-negative bacteria has been investivated.
The minimum inhibitory concentration (MIC) was determined in accordance with the method recommended by Japan Society of Chemotherapy.

[7] = system: Proteus vulgaris IFO 3167; test: as above; type: cell-based; conditions: IFO3167; Proteus vulgaris IFO 3167; 10^6 cells/ml; standard strain; read-out: MIC
[8] = system: C. difficile I-E; test: as above; type: cell-based; conditions: Clostridioides difficile; C. difficile I-E; 10^6 cells/ml; standard strain; read-out: MIC
[9] = system: C. ramosum; test: as above; type: cell-based; conditions: Thomasclavelia ramosa; C. ramosum; 10^6 cells/ml; standard strain; read-out: MIC
[10] = system: Escherichia coli NIHJ JC-2; test: as above; type: cell-based; conditions: Escherichia coli, NIHJJC2, Escherichia coli NIHJ JC-2; 10^6 cells/ml; standard strain; read-out: MIC
[11] = system: S. pyogenes IID 692; test: as above; type: cell-based; conditions: Streptococcus pyogenes, IID692; S. pyogenes IID 692; 10^6 cells/ml; standard strain; read-out: MIC
[12] = system: S. pyogenes 3107; test: In vitro antibacterial activity, MIC (clinical isolates); type: cell-based; conditions: Streptococcus pyogenes; S. pyogenes 3107; 10^6 cells/ml; clinical isolate; read-out: MIC
[13] = system: Citrobacter freundii IID 976; test: In vitro antibacterial activity, MIC (standard strain); type: cell-based; conditions: IID976; Citrobacter freundii IID 976; 10^6 cells/ml; standard strain; read-out: MIC
[14] = system: S. faecalis 214; test: In vitro antibacterial activity, MIC (clinical isolates); type: cell-based; conditions: Enterococcus faecalis; S. faecalis 214; 10^6 cells/ml; clinical isolate; read-out: MIC
[15] = system: Alcaligenes faecalis 0104002; test: In vitro antibacterial activity, MIC (standard strain); type: cell-based; conditions: Alcaligenes faecalis, 0104002, Alcaligenes faecalis 0104002; 10^6 cells/ml; standard strain; read-out: MIC
[16] = system: S. pyogenes 4340; test: In vitro antibacterial activity, MIC (clinical isolates); type: cell-based; conditions: Streptococcus pyogenes; S. pyogenes 4340; 10^6 cells/ml; clinical isolate; read-out: MIC
[17] = system: P. aeruginosa IFO 12689; test: In vitro antibacterial activity, MIC (standard strain); type: cell-based, Pseudomonas aeruginosa; conditions: Pseudomonas aeruginosa, IFO12689; P. aeruginosa IFO 12689; 10^6 cells/ml; standard strain; read-out: MIC
[18] = system: P. mirabilis IID 994; test: as above; type: cell-based; conditions: Proteus mirabilis, IID994; P. mirabilis IID 994; 10^6 cells/ml; standard strain; read-out: MIC
[19] = system: S. pneumoniae 2950; test: In vitro antibacterial activity, MIC (clinical isolates); type: cell-based; conditions: Streptococcus pneumoniae; S. pneumoniae 2950; 10^6 cells/ml; clinical isolate; read-out: MIC
[20] = system: S. faecalis 401; test: as above; type: cell-based; conditions: Enterococcus faecalis; S. faecalis 401; 10^6 cells/ml; clinical isolate; read-out: MIC
[21] = system: Pseudomonas aeruginosa V-1; test: In vitro antibacterial activity, MIC (standard strain); type: cell-based; conditions: V1; Pseudomonas aeruginosa V-1; 10^6 cells/ml; standard strain; read-out: MIC
[22] = system: S. agalactiae 4368; test: In vitro antibacterial activity, MIC (clinical isolates); type: cell-based; conditions: Streptococcus agalactiae; S. agalactiae 4368; 10^6 cells/ml; clinical isolate; read-out: MIC
[23] = system: S. pneumoniae 2054; test: as above; type: cell-based; conditions: Streptococcus pneumoniae; S. pneumoniae 2054; 10^6 cells/ml; clinical isolate; read-out: MIC
[24] = system: Bacteroides fragilis GM 7000; test: In vitro antibacterial activity, MIC (standard strain); type: cell-based; conditions: GM7000; Bacteroides fragilis GM 7000; 10^6 cells/ml; standard strain; read-out: MIC
[25] = system: E. coli ML4707; test: In vivo antibacterial activity against systemic infection in mice; design: species or system mice (ICR-S); conditions: Escherichia coli, ML4707; mice (ICR-S); oral, an hour after intraperitoneal infection; challenge dose 2.7 x 10^6 ~ 8.8 x 10^6 cfu/mouse; read-out: ED50 E. coli ML4707
Procedure: Experiment-2 In vivo antibacterial activity against systemic infection in mice (ICR-S)
The infections were produced by intraperitoneal injection of a suspension of the bacterial culture corresponding to the germ studied. The products were administered orally at an hour after the infection.

Structure (SMILES)	MIC [1]	MIC [2]	MIC [3]	MIC [4]	MIC [5]	MIC [6]	MIC [7]	MIC [9]	MIC [10]	MIC [11]	MIC [12]	MIC [13]	MIC [14]	MIC [15]	MIC [16]	MIC [17]	MIC [18]	MIC [19]	MIC [20]	MIC [21]	also measured
CC(C)NCC1CCN(c2c(F)cc3c(=O)c(C(=O)O)cn(C4CC4)c3c2F)C1.Cl (stereo not drawn) [Example 11, 1-Cyclopropyl-6,8-difluoro-1,4-dihydro-7-(3-isopropylaminomethyl-1-pyrrolidinyl)-4-oxo-3-quinolinecarboxylic acid hydrochloride]	0.39 µg/mL	0.39 µg/mL	0.05 µg/mL	0.39 µg/mL	0.78 µg/mL	0.05 µg/mL	0.05 µg/mL	0.78 µg/mL	0.05 µg/mL	0.2 µg/mL	0.2 µg/mL	0.1 µg/mL	0.39 µg/mL	1.56 µg/mL	0.2 µg/mL	3.13 µg/mL	0.1 µg/mL	0.2 µg/mL	0.39 µg/mL	1.56 µg/mL	MIC [8]: 3.13 µg/mL; MIC [22]: 0.2 µg/mL; MIC [23]: 0.2 µg/mL; MIC [24]: 1.56 µg/mL
CN(C)CC1CCN(c2c(F)cc3c(=O)c(C(=O)O)cn(C4CC4)c3c2Cl)C1 (stereo not drawn) [Example 20, 8-Chloro-1-cyclopropyl-6-fluoro-1,4-dihydro-7-(3-dimethylaminomethyl-l-pyrrolidinyl)-4-oxo-3-quinolinecarboxylic acid]	0.1 µg/mL (≈ 0.245 µM)	0.1 µg/mL (≈ 0.245 µM)	0.05 µg/mL (≈ 0.123 µM)	0.2 µg/mL (≈ 0.49 µM)	≤ 0.05 µg/mL	0.05 µg/mL (≈ 0.123 µM)	0.05 µg/mL (≈ 0.123 µM)	0.39 µg/mL (≈ 0.956 µM)	0.025 µg/mL (≈ 0.0613 µM)	0.1 µg/mL (≈ 0.245 µM)	0.05 µg/mL (≈ 0.123 µM)	0.05 µg/mL (≈ 0.123 µM)	0.1 µg/mL (≈ 0.245 µM)	0.39 µg/mL (≈ 0.956 µM)	0.05 µg/mL (≈ 0.123 µM)	3.13 µg/mL (≈ 7.67 µM)	0.05 µg/mL (≈ 0.123 µM)	0.05 µg/mL (≈ 0.123 µM)	0.1 µg/mL (≈ 0.245 µM)	0.39 µg/mL (≈ 0.956 µM)	ED50 [25]: 2.1 mg/kg; MIC [22]: 0.05 µg/mL (≈ 0.123 µM); MIC [23]: 0.1 µg/mL (≈ 0.245 µM); MIC [24]: 0.1 µg/mL (≈ 0.245 µM)
CNCC1CCN(c2c(F)cc3c(=O)c(C(=O)O)cn(C4CC4)c3c2Br)C1 (stereo not drawn) [Example 16, 8-Bromo-1-cyclopropyl-6-fluoro-1,4-dihydro-7-(3-methylaminomethyl-l-pyrrolidinyl)-4-oxo-3-quinolinecarboxylic acid]	0.1 µg/mL (≈ 0.228 µM)	0.05 µg/mL (≈ 0.114 µM)	0.025 µg/mL (≈ 0.057 µM)	0.1 µg/mL (≈ 0.228 µM)	0.1 µg/mL (≈ 0.228 µM)	0.025 µg/mL (≈ 0.057 µM)	0.025 µg/mL (≈ 0.057 µM)	0.39 µg/mL (≈ 0.89 µM)	0.0125 µg/mL (≈ 0.0285 µM)	0.1 µg/mL (≈ 0.228 µM)	0.05 µg/mL (≈ 0.114 µM)	0.05 µg/mL (≈ 0.114 µM)	0.1 µg/mL (≈ 0.228 µM)	0.39 µg/mL (≈ 0.89 µM)	0.05 µg/mL (≈ 0.114 µM)	1.56 µg/mL (≈ 3.56 µM)	0.025 µg/mL (≈ 0.057 µM)	0.05 µg/mL (≈ 0.114 µM)	0.1 µg/mL (≈ 0.228 µM)	0.2 µg/mL (≈ 0.456 µM)	ED50 [25]: 1.9 mg/kg; MIC [22]: 0.05 µg/mL (≈ 0.114 µM); MIC [23]: 0.05 µg/mL (≈ 0.114 µM); MIC [24]: 0.2 µg/mL (≈ 0.456 µM)

Reference: EP0183129A1, “Quinolonecarboxylic acid derivatives” (KYORIN PHARMACEUTICAL CO., LTD., priority 1984, dated 1986)
